{"source": "patent US20110178142A1", "about": "“PHARMACEUTICAL COMPOSITION FOR THERAPEUTIC OR PROPHYLACTIC TREATMENT OF BACTERIAL INFECTIONS AND ASSOCIATED DISEASES” (National Institute of Immunology, priority 2008, published 2011)", "key": {"FtsZ [1]": {"target": "T1, FtsZ (Escherichia coli, UniProt P0A9A6)", "T1 construct": "The recombinant protein is exactly same as the natural protein; made in house; host or cells: E. coli BL21", "assay": "Dilution-induced disassembly of preformed FtsZ filaments", "type": "biochemical, E. coli", "settings": "20 fold dilution, 5 min at 37° C., concentration dependent", "from_the_text": "(§1) FtsZ was over-expressed and purified from E. coli BL21 strain as described by Santa and Panda. (Detection of an intermediate during unfolding of bacterial cell division protein FtsZ: loss of functional properties precedes the global unfolding of FtsZ. (2003). The Journal of Biological Chemistry. 278, 21336-43). The recombinant protein is exactly same as the natural protein. For all the experimental procedures, the above expressed and purified recombinant FtsZ was used. The FtsZ concentration was measured by the Bradford method using BSA as a standard (Bradford M M. (1976) A rapid and sensitive method for the quantitation of microgram quantities of protein utilizing the principle of protein-dye binding. Analytical Biochemistry. 72, 248-54). The purified protein was frozen and stored at −80° C. Prior to use, FtsZ was thawed and centrifuged at 287,000 ×g for 30 min to remove any insoluble aggregates.\nFtsZ (30 μM) was polymerized in 25 mM pipes buffer in the presence of 5 mM MgCl2, 1 mM GTP and 50 mM KCl. Preformed FtsZ polymers were diluted 20 fold in warm 25 mM pipes buffer in the absence and presence of different concentrations of Compound 1 and the mixtures were incubated for 5 min at 37° C. The polymers were then collected by centrifugation."}, "FtsZ [2]": {"target": "T1, FtsZ", "assay": "Far-UV circular dichroism of FtsZ", "set-up": "species or system E. coli", "settings": "0-50 μM compound; FtsZ 1 μM", "from_the_text": "as §1\nThe far-UV CD spectra were recorded using a JASCO spectropolarimeter. The secondary structure was monitored over the wavelength range of 200-260 nm using a 0.1-cm path length cuvette and the ellipticity was determined at 220 nm. Each spectrum was recorded using an average of 3 scans."}, "FtsZ [3]": {"target": "T1, FtsZ", "assay": "GTPase activity of FtsZ (malachite green ammonium molybdate assay)", "type": "biochemical, E. coli", "from_the_text": "as §1\nIt was then polymerized in the presence of 10 mM magnesium and 1 mM GTP at 37° C. The GTP hydrolysis reaction was quenched at different time points by adding perchloric acid. Moles of inorganic phosphate released per mole of FtsZ were measured using the standard malachite green ammonium molybdate assay (Geladopoulos T P, Sotiroudis T G and Evangelopoulos A E. (1991). A malachite green colorimetric assay for protein phosphatase activity. Analytical Biochemistry.192,112-6;Beuria T K, Krishnakumar S S, Sahar S, Singh N, Gupta K, Meshram M and Panda D. (2003) Glutamate-induced assembly of bacterial cell division protein FtsZ. The Journal of Biological Chemistry. 278, 3735-41)."}, "FtsZ [4]": {"target": "T1, FtsZ", "assay": "Electron microscopic analysis of FtsZ assembly", "type": "biochemical, E. coli", "from_the_text": "as §1\nFtsZ (12 μM) in 25 mM pipes buffer (pH 6.5) was incubated without or with different concentrations of compound for 10 min on ice. Then, 10 mM MgSO4 and 1 mM GTP were added to the reaction mixtures and incubated for an additional 15 min at 37° C. Samples were transferred onto a formvar-carbon coated copper grid, stained with 2% uranyl acetate and observed using Transmission Electron Microscope (FEI TECHNAI G^2 12) as described previously (Beuria T K, Santra M K and Panda D. (2005) Sanguinarine blocks cytokinesis in bacteria by inhibiting FtsZ assembly and bundling. Biochemistry. 44, 16584-93).\nThe observed difference in the thickness of the FtsZ protofilament bundles in the absence and presence of 10 and 25 μM concentration is significant at a 99.9% confidence level (p<0.001)."}, "FtsZ [5]": {"target": "T1, FtsZ", "assay": "Sedimentation assay of FtsZ polymerization", "type": "biochemical, E. coli", "settings": "50 μM compound; FtsZ 12 μM", "from_the_text": "as §1, with “Prior to use, FtsZ was thawed and centrifuged at 287,000 ×g for 30 min to remove any insoluble aggregates.” left out\nThen, 10 mM MgSO4 and 1 mM GTP were added to the reaction mixtures and incubated for an additional 15 min at 37° C. Polymerized FtsZ was sedimented at 287,000×g for […], and the protein concentration in the supernatant was measured (Santra M K and Panda D. (2007) Acid-induced loss of functional properties of bacterial cell division protein FtsZ: evidence for an alternative conformation at acidic pH, Proteins. 67,177-88). The protein concentration in the pellet was calculated by subtracting the protein concentration in the supernatant from the total protein concentration."}, "FtsZ (Y371W)": {"target": "T2, FtsZ (Y371W) (Escherichia coli, UniProt P0A9A6, Y371W)", "T2 sequence (P0A9A6 1-383 Y371W)": "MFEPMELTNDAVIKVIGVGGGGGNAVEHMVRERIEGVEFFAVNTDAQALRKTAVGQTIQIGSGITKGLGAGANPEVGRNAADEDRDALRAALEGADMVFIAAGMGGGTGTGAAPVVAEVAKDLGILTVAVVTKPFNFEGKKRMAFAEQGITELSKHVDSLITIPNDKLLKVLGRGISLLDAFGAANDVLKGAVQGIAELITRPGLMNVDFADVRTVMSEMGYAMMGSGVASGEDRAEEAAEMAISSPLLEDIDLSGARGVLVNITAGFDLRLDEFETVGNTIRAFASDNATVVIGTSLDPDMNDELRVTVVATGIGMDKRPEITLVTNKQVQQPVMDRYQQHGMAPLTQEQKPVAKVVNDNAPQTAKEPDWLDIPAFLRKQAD", "assay": "Binding to FtsZ by tryptophan fluorescence quenching, double reciprocal plot", "set-up": "species or system E. coli", "settings": "FtsZ (Y371W) 1 μM, 25° C., read-out: dissociation constant of FtsZ-compound complex", "procedure": "(Beuria T K, Santra M K and Panda D. (2005) Sanguinarine blocks cytokinesis in bacteria by inhibiting FtsZ assembly and bundling. Biochemistry. 44, 16584-93). […] The change in the fluorescence intensity was used to calculate the dissociation constant of FtsZ-compound complex. A dissociation constant of 15±1.5 μM was determined using a double reciprocal plot of the binding data (FIG. 5B)."}}, "data": [{"smiles": "O=C(O)c1cccc(-c2ccc(C=C3SC(=S)N(c4cccc(C(F)(F)F)c4)C3=O)o2)c1", "note": "[the compound, 3-{5-[4-Oxo-2-thioxo-3-(3-trifluoromethyl-phenyl)-thiazolidin-5-ylidenemethyl]-furan-2-yl}-benzoic acid]", "values": [{"measurement": "dilution-induced disassembly of FtsZ protofilaments", "setting": "FtsZ [1]", "result": "strongly prevented"}, {"measurement": "effect on secondary structure of FtsZ (far-UV CD)", "setting": "FtsZ [2]", "result": "did not change the secondary structure"}, {"measurement": "rate of GTP hydrolysis at 5 min", "setting": "FtsZ [3]; 10 μM compound", "result": "2.9 phosphate release per FtsZ per min"}, {"measurement": "rate of GTP hydrolysis at 5 min", "setting": "FtsZ [3]; 25 μM compound", "result": "1.5 phosphate release per FtsZ per min"}, {"measurement": "rate of GTP hydrolysis at 5 min", "setting": "FtsZ [3]; 50 μM compound", "result": "1.3 phosphate release per FtsZ per min"}, {"measurement": "average thickness of FtsZ bundles", "setting": "FtsZ [4]; 10 μM compound", "result": "64±3", "unit": "nm"}, {"measurement": "average thickness of FtsZ bundles", "setting": "FtsZ [4]; 25 μM compound", "result": "66±4.3", "unit": "nm"}, {"measurement": "average thickness of FtsZ bundles", "setting": "FtsZ [4]; 50 μM compound, large number of aggregates observed", "result": "46±3.5", "unit": "nm"}, {"measurement": "increase of sedimentable polymeric mass of FtsZ", "setting": "FtsZ [5]", "result": 25, "unit": "%"}, {"measurement": "Kd", "setting": "FtsZ (Y371W)", "result": "15 ± 1.5", "unit": "µM"}]}]}
